From US7285556B2, “Thienopyrimidine-based inhibitors of the src family” (Board of Regents, The University of Texas Systems, priority 2000, dated 2007)
Read-outs that look alike come from different tables or passages of the source.

Columns and labels:
Recombinant human Src = biological target: T1, Recombinant human Src (Homo sapiens, UniProt P12931); experiment: Src tyrosine kinase activity, poly E4Y and 32P-ATP; assay type: biochemical
T1 construct: made in house; host or cells: baculovirus-insect cell system
T1 sequence (P12931 whole entry): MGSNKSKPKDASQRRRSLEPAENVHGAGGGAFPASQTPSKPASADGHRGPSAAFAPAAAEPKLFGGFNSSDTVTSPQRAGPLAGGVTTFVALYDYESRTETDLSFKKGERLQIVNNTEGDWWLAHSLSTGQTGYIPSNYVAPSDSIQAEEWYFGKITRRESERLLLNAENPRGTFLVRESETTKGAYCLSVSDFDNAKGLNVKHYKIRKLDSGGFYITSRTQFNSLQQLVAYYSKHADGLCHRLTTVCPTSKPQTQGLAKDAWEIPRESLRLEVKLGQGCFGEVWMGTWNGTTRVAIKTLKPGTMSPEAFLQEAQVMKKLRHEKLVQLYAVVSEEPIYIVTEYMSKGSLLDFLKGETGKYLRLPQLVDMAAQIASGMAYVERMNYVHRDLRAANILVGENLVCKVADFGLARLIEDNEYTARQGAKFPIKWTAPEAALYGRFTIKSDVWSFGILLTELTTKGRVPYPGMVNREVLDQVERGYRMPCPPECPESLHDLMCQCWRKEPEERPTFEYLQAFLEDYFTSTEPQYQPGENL
In short: (§1)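 Recombinant GST-Csk (E. coli) or baculovirus-expressed human Src assayed on poly E4Y in 0.15 M EPPS-NaOH pH 8.0, 6 mM MgCl2, 0.2 mM γ32P-ATP, 10% glycerol, 0.1% Triton X-100. Read-out is 32P incorporation into poly E4Y; for ATP variation (0–250 μM), poly E4Y held at 150 μg/ml.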

N12 neuronal Src variant = biological target: T2, N12 neuronal Src variant (Homo sapiens, UniProt P12931); experiment: Testing against neuronal Src variant N12; assay type: biochemical; conditions: Table 5
T2 construct: made in house
T2 sequence (P12931 1-542 isoform P12931-2): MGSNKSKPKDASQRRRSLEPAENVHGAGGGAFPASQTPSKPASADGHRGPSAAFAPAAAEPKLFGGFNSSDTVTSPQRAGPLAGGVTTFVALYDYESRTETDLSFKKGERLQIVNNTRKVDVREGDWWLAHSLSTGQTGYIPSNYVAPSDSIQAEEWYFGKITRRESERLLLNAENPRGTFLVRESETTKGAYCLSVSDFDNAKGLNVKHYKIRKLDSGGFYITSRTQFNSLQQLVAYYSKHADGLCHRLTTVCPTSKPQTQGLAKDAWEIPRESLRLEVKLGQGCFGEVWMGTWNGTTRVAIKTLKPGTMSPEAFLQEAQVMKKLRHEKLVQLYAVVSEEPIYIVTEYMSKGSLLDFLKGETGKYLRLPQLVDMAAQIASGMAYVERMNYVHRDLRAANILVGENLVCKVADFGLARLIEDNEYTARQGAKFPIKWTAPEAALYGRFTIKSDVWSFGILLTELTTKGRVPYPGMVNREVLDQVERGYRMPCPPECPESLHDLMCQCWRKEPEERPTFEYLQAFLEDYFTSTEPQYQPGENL
Description: (§2) The tyrosine kinase activity of Src, Csk and FGFr was determined using poly E4Y and ^32P-ATP. Briefly, enzymes were assayed in a reaction mixture consisting of 0.15 M EPPS-NaOH (pH 8.0) with 6 mM MgCl2, 0.2 mM γ^32P-ATP (0.2-0.4 mCi/μmol), 10% glycerol, 0.1% Triton X-100, and poly E4Y. Poly E4Y is a synthetic peptide whose phosphorylation is measured in this assay by the addition of the radioactively labeled phosphate from the ATP (Budde et al., 1995). […] When ATP was varied (0, 50, 100 and 250 μM), poly E4Y was kept constant at 150 μg/ml.
(§3) Thienopyrimidine-based compounds were also tested against neuronal Src variants (Table 5).

N23 neuronal Src variant = biological target: T3, N23 neuronal Src variant (Homo sapiens, UniProt P12931); experiment: Testing against neuronal Src variant N23; assay type: biochemical; conditions: Table 5
T3 construct: made in house
T3 sequence (P12931 1-553 isoform P12931-3): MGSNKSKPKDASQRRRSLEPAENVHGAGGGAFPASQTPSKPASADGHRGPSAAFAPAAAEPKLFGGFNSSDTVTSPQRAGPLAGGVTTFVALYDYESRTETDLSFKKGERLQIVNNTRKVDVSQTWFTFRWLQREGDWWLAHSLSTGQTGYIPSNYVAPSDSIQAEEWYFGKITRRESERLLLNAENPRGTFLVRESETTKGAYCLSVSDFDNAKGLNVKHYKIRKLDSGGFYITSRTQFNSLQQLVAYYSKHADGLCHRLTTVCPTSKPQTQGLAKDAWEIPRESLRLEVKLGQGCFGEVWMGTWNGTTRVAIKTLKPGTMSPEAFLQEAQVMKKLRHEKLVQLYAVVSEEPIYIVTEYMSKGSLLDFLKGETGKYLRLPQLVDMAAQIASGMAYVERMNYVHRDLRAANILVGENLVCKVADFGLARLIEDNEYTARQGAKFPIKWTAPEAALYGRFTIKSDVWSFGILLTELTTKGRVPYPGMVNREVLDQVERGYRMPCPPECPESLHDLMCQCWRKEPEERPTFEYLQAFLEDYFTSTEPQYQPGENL
Description: as §2, §3

Csk = biological target: T4, Csk (Homo sapiens, UniProt P41240); experiment: Csk tyrosine kinase activity, poly E4Y and 32P-ATP; assay type: biochemical; conditions: screening assay, 50 μg/ml poly E4Y, 0.2 mM 32P-ATP
T4 construct: GST (glutathione-S-transferase) (N); made in house; host or cells: E. coli (pGEX vector)
T4 sequence (P41240 whole entry, species assumed): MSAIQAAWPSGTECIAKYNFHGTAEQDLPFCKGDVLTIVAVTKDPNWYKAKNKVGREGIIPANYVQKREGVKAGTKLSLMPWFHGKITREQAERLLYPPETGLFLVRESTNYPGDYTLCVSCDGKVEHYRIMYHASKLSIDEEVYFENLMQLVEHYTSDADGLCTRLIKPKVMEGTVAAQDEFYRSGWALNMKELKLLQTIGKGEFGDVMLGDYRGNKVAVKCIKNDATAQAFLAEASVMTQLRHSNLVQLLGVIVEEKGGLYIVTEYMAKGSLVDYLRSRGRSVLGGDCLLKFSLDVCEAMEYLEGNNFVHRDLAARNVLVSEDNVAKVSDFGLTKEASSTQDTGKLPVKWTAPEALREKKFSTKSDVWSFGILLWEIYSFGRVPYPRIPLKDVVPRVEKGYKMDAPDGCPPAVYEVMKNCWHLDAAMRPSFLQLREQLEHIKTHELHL
In short: as §1

[1] = system: osteoclastic bone resorption; conditions: Rodan and Martin, 2000; cited from earlier work
[2] = system: colon adenocarcinoma cell line, HT29; experiment: MTT reduction assay, in vitro drug cytotoxicity; assay type: cell-based; conditions: Homo sapiens, HT-29, 72 hours incubation, read-out: IC50, HT-29 cells
Description: Compounds synthesized using the methods described above were tested using a standard MTT assay (Green et al., 1984) against a colon adenocarcinoma cell line, HT29. A human ovarian cancer cell line, SKOv-3 may also be used. The use of an MTT assay using these cells is recognized as an accepted assay for anti-tumor activity by those in the field. The in vitro activity of Src inhibitors of the present invention against diseases other than cancer may be assayed by methods known to those of skill in the art.
In vitro drug cytotoxicities against a colon adenocarcinoma cell line, HT29 was assessed by using the MTT reduction assay, as previously reported (Green et al., 1984). A human ovarian cancer cell line, SKOv-3 may also be used. The MTT dye was obtained from Sigma Chemical Co. (St. Louis, Mo.). The drugs were dissolved in DMSO:PEG 300 (1:1). Neither DMSO or PEG 300 are toxic to cells at a concentration of 31.6 μg/ml. […] The optical density of each well was then measured with a microplate spectrophotometer at a wavelength of 570 nm with a reference cell at 650 nm. The percent cell viability was calculated by the following equation: % cell viability=(OD treated wells/OD control wells)×100
where OD is the mean optical density from four determinations. The percent cell viability values were plotted against the drug concentrations used, and the IC50 was calculated from the curve.

[3] = Table 2, read-out: Src IC50 (especially good inhibitors of Src)
[4] = Table 5, N6 = Src, read-out: N6(Src) IC50
[5] = read-out: IC50 (preferred compounds for treatment of Src family-related disease)

Compound	IC50 (Recombinant human Src; [3])	IC50 (Recombinant human Src; [4])	IC50 (Recombinant human Src; [5])	IC50 (N12 neuronal Src variant)	IC50 (N23 neuronal Src variant)	IC50 (Csk)	osteoclastic bone resorption in vivo [1]	IC50 [2]
COc1ccc(C=NNc2ncnc3c(C)csc23)cc1O [Compound 51, 3-Hydroxy-4-methoxybenzaldehyde(7-methylthieno[3,2-d]pyrimidin-4-yl)hydrazone]	≤ 2000 nM	510 nM	< 2000 nM	1750 nM	510 nM			
Cc1csc2c(NN=Cc3cccs3)ncnc12 [Compound 29, 2-Thiophenecarboxaldehyde(7-methylthieno[3,2-d]pyrimidin-4-yl)hydrazone]	≤ 2000 nM	950 nM	< 2000 nM	1170 nM	840 nM	> 182000 nM		
CO[C@H]1[C@@H](OC)C[C@H](C)[C@@H](OC)C2=CC(=O)C=C(NC(=O)/C(C)=C/C=C\[C@H](OC)[C@@H](OC(N)=O)/C(C)=C/[C@@H]1C)C2=O [Herbimycin A]							inhibits osteoclastic bone resorption	
C(=NNc1ncnc2cc(-c3ccccc3)sc12)c1cccnc1 [Compound 199, 3-Pyridinecarboxaldehyde(6-phenylthieno[3,2-d]pyrimidin-4-yl)hydrazone]	≤ 2000 nM	150 nM	< 2000 nM	230 nM	120 nM	> 151000 nM		
Cc1csc2c(NN=Cc3cccnc3)ncnc12 [Compound 27, 3-Pyridinecarboxaldehyde(7-methylthieno[3,2-d]pyrimidin-4-yl)hydrazone]	≤ 2000 nM	370 nM	< 2000 nM	590 nM	280 nM			13000 nM
